Laboratory results: patent US9890192B2, “Targeted nitroxide agents” (University of Pittsburgh—of the Commonwealth System of …, priority 2008, dated 2018)

Assays:
[1] = tested on: rats subjected to volume-controlled hemorrhagic shock; experiment: Survival of rats subjected to volume-controlled hemorrhagic shock; assay type: in vivo, rat; details: 2 μmol/kg intravenous; for survival vs vehicle: last 20 min of hemorrhage
Procedure: Survival of rats subjected to volume-controlled hemorrhagic shock. Following surgical preparation and a 5-min stabilization period to obtain baseline readings, rats were subjected to hemorrhagic shock. Bleeding was carried out in 2 phases.
Initially, 21 ml/kg of blood was withdrawn over 20 min. Immediately thereafter, an additional 12.5 ml/kg of blood was withdrawn over 40 min. Thus, hemorrhage occurred over a total period of 60 min and the total blood loss was 33.5 ml/kg or approximately 55% of the total blood volume. Rats were randomly assigned to receive XJB-5-131 (2 μmol/kg) or its vehicle, a 33:67 (v/v) mixture of DMSO and normal saline. XJB-5-131 solution or vehicle alone was administered as a continuous infusion during the last 20 min of the hemorrhage period. The total volume of fluid infused was 2.8 ml/kg and it was administered intravenously using a syringe pump (KD100, KD Scientific, New Hope, Pa.). […] At the end of the 6 hour observation period, animals that were still alive were euthanized with an overdose of KCl.
A total of sixteen rats were tested in this study. Rats were treated with 2.8 ml/kg of vehicle or the same volume of XJB-5-131 solution during the final 20 min of the bleeding protocol. The total dose of XJB-5-131 infused was 2 μmol/kg. Following profound hemorrhagic shock consistent with the protocol described above for the prior studies, thirteen survived for at least 60 min and received the full dose of either XJB-5-131 solution or the vehicle, a 33:67 (v/v) mixture of DMSO and normal saline. […] None of the between-group differences were statistically significant.

[2] = tested on: phospholipids in intestinal mucosa; experiment: Peroxidation of phospholipids in gut mucosa after hemorrhagic shock; assay type: in vivo, rat; details: 10 μM intraluminal; 2 h HS
Text: Assay for peroxidation of phospholipods. Gut mucosal samples were homogenized. Lipids were extracted from homogenates using the Folch procedure, see M. Lees and G. H. Sloan-Stanley, A simple method for isolation and purification of total lipids from animal tissue, J. BIOL. CHEM. 226:497-509 (1957), and resolved by 2D HPTLC (High Performance Thin Layer Chromatography) as previously described, see Kagan, V. E. et al., A role for oxidative stress in apoptosis: Oxidation and externalization of phosphatidylserine is required for macrophage clearance of cell undergoing Fas-mediated apoptosis, J Immunol. 169:487-489 (2002). Spots of phospholipids were scraped from HPTLC plates and phospholipids were extracted from silica. Lipid phosphorus was determined by a micro-method, see Bottcher, C. J. F. et al, A rapid and sensitive sub-micro phosphons determination. Anal Chim Acta. 24: 203-204 (1961).
Oxidized phospholipids were hydrolyzed by pancreatic phospholipase A2 (2 U/μl) in 25 mM phosphate buffer containing 1 mM CaCl2. 0.5 mM EDTA and 0.5 mM sodium dodecyl sulfate (SDS) (pH 8.0, at room temperature for 30 min). Fatty acid hydroperoxides formed were determined by fluorescence HPLC of resorufin stoichiometrically formed during their microperoxidase 11-catalized reduction in presence of Amplex Red (for 40 min at 4° C.) (8). Fluorescence HPLC (Eclipse XDB-C18 column, 5 μm, 150×4.6 mm, mobile phase was composed of 25 mM disodium phosphate buffer (pH 7.0)/methanol (60:40 v/v); excitation wavelength 560 nm, emission wavelength 590 nm) was performed on a Shimadzu LC-100AT HPLC system equipped with fluorescence detector (RF-10Axl) and autosampler (SIL-10AD).
In the subsequent series of in vivo studies, the affect of intraluminal XJB-5-131 on hemorrhage-induced peroxidation of phospholipids in intestinal mucosa was examined. […] In a preferred embodiment, 0.3 mL of test solution filled the lumen of each ileal compartment.
After two hours of HS, samples of ileal mucosa from the gut sacs filled with the vehicle and XJB-5-131 were obtained and compared with ileal mucosa of normal MECs. […]

[3] = tested on: Ercc1−/cond; K14-Cre mice; experiment: Photoaging after UV-B in Ercc1−/cond; K14-Cre mice; assay type: in vivo, mouse; details: 80 μg in a cream daily for five days
Procedure: As a measure of the effect of XJB-5-131 on photoaging, Ercc1^−/cond; K14-Cre mice, which are missing ERCC1 only in the skin, were shaved, treated with a depilatory then irradiated with UV-B light to induce a sunburn (500 J/m^2, the median erythemal dose). Subsequently, the mice were treated with XJB-5-131 (80 μg) emulsified in a cream daily for five days.

[4] = tested on: γ-H2AX in primary MEF cells from Ercc1−/− mice; experiment: γ-H2AX immunostaining in Ercc1−/− MEFs under oxidative stress; assay type: cell-based, mouse; details: 1 μM, 48 hours
Procedure: Next, the abilities of these two agents, as well as XJB-5-131 and JP4-039, each at a concentration of 1 μM, were tested for their ability to prevent oxidation-induced DNA double-strand breaks in cell cultures prepared, and oxidatively stressed, as in the preceding paragraph. Treated as well as untreated cells were, after 48 hours of treatment, immunostained for γ-H2AX, a marker of DNA double-strand breaks as well as cellular senescence.

[5] = tested on: p16 in primary MEFs from Ercc1−/− mouse embryos; experiment: p16 immunofluorescence in Ercc1−/− MEFs under 20% oxygen; assay type: cell-based; details: 1 uM, 48 hrs
Procedure: To test the protective activity of JP4-039, cultures of primary MEFs were prepared from Ercc1^−/− mouse embryos and grown under 20% oxygen (ambient air), which creates oxidative stress in these cells that are hypersensitive to reactive oxygen species. The cells were then either treated with a concentration of 1 uM XJB-5-131, JP4-039, JED-E71-37 or JED-E71-58, or left untreated (media), and then after 48 hrs the level of p16, a marker of irreversible cellular senescence, was measured by immunofluorescence staining.

[6] = tested on: mouse embryonic cells (MEC); experiment: EPR-based analysis of integration and reduction of nitroxide Gramicidin S-peptidyl conjugates in MECs; assay type: cell-based; details: 10 μM, whole cells, cytosol fractions
Procedure: Electron paramagnetic resonance (“EPR”) spectroscopy was used to monitor the cellular delivery of compounds 5a and 5b shown in FIG. 3 in mouse embryonic cells (“MEC”).
The following conditions were used during the EPR-based analysis of the integration and reduction of nitroxide Gramicidin S-peptidyl conjugates in MECs. The MECs at a concentration of 10 million MECs per mL were incubated with 10 μM of 4-AT and compound 5a, respectively. Recovered nitroxide radicals in whole cells, mitochondria, and cytosol fractions were resuspended in phosphate buffer saline (“PBS”) in the presence and absence, respectively, of 2 μM K3Fe(CN)6.

CC(C)C[C@@H](/C=C/[C@H](Cc1ccccc1)C(=O)N1CCC[C@H]1C(=O)N[C@H](C(=O)N[C@@H](CCCNC(=O)OCc1ccccc1)C(=O)NC1CC(C)(C)N([O])C(C)(C)C1)C(C)C)NC(=O)OC(C)(C)C [XJB-5-131]
rats surviving longer than 3 hours after completion of the hemorrhage protocol [1]: Three of the six
rats surviving the whole 6 hour post-bleeding observation period [1]: one
survival vs vehicle [1]: survived significantly longer
survival vs vehicle ([1]; listed as XJR-5-131): significantly prolonged the survival
peroxidation of phosphatidylcholine (PC) [2]: no effect
peroxidation of phosphatidylethanolamine (PE) [2]: only had a small effect
peroxidation of phosphatidylserine (PS) [2]: no effect
appearance of skin after UV-B [3]: much more smooth and healthy
γ-H2AX (oxidation-induced DNA double-strand breaks) [4]: less effective
level of p16 [5]: less effective
EPR signals of nitroxide radicals; integration into cells and mitochondria [6]: concentrated in the mitochondria
